SMILES strings stand for the structures.

This test deals with T1, HSD17B13 enzyme (Homo sapiens, UniProt Q7Z5P4).
T1 construct: His; made in house; host or cells: E. coli
T1 sequence (Q7Z5P4 20-300): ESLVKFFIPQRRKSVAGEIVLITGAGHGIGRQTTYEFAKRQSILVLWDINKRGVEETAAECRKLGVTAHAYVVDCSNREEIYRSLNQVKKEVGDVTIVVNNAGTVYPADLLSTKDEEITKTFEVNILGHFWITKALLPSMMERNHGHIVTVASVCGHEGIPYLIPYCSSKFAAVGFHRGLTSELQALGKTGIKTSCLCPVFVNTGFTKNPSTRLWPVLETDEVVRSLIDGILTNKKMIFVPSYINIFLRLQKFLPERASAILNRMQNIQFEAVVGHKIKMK
The experiment in a line: LC/MS estrone detection assay: conversion of estradiol to estrone by HSD17B13. Type of test: biochemical. Conditions: 4 μM Estradiol, 6mM NAD, 30 nM HSD17B13 enzyme (E. coli expressed His-tagged), 2 hours at 26.5° C. The procedure: Example A: Estrone Detection Assay for Evaluation of HSD17β13 Activity and Identification of Inhibitors
The liquid chromatography/mass spectrometry (LC/MS) estrone detection assay monitors the conversion of estradiol to estrone by HSD17B13. This assay was undertaken in a 96wp format (Eppendorf deep well Plate 96/500) in an 80 μl reaction volume containing: 4 μM of Estradiol (E2: Cayman: #10006315), 6mM NAD (Sigma: #N0623) and 30 nM HSD17B13 enzyme (in-house: E. coli expressed His-tagged, purified, soluble protein) in a reaction containing […] potassium phosphate buffer pH 7.4, with 0.5% vehicle (DMSO). Reactions were incubated for 2 hours at 26.5° C., and estradiol (E2) conversion to estrone (E1) was quantitated by LC-MS/MS based analyte detection for both E2 and E1 using LCMS grade reagents.
Reactions were terminated by the addition of two volumes of acetonitrile (MeCN: LCMS grade: CAS #75/05/8) containing deuterated (D4)-E1 used as internal standard (Clear Synth: #CS-T-54273: 500 ng/mL final concentration). Samples were applied to pre-prepared Bond Elut-C18 extraction cartridges (3 mL: Agilent: #12102028), washed and eluted in MeCN. Eluates were dried under nitrogen and re-suspended in 60% methanol (LCMS grade methanol: CAS #67/56/1) before submission for analysis. Aqueous linearity for E2 and E1 were included for quantification.
Analysis of samples was undertaken on a XBridge BEH C18 column (Waters: #186003033) using 0.1% Diethyl Amine in MeCN (mobile phase A: DEA CAS #109-89-7) and 0.1% Diethyl Amine in milli-Q water (mobile phase B) in a 3 min gradient allowing 25% B. Analytes were detected in negative mode using MRM analysis, with E2 having a RT of 1.85 min and E1 having a RT of 2 min Activity of the enzyme, in the absence of NAD′, was used to evaluate specificity of conversion. Enzyme activity in the presence of test samples was expressed as a percentage of the uninhibited enzyme activity, and plotted versus inhibitor concentration. Non-linear regression was performed using a four-parameter logistic model and GraphPad Prism software (GraphPad Software, La Jolla, CA). All assessments were undertaken in duplicate evaluations and pooled during extraction process and subsequently injected as duplicates for LC-MS/MS analysis.

Compound `COC(=O)C(NC(=O)c1scnc1NC(=O)c1ccc(O)c(Cl)c1)c1ccccc1` (stereo in doubt) [Example 7, methyl (R)-2-(4-(3-chloro-4-hydroxybenzamido)thiazole-5-carboxamido)-2-phenylacetate] gave an IC50 of 100 to 500 nM. Consider `O=C(Nc1scnc1C(=O)NCc1ccccc1OC(F)(F)F)c1cc(Cl)c(=O)[nH]n1` [Example 13, 5-(5-chloro-6-oxo-1,6-dihydropyridazine-3-carboxamido)-N-(2-(trifluoromethoxy)benzyl)thiazole-4-carboxamide], for which the IC50 was 500 to 1000 nM. Regarding `O=C(Nc1ncsc1C(=O)NCCc1ccccc1C(F)(F)F)c1ccc(O)c(C(F)(F)F)n1` [Example 1, 4-(5-hydroxy-6-(trifluoromethyl)picolinamido)-N-(2-(trifluoromethyl)phenethyl)thiazole-5-carboxamide], the IC50 lay within 100 to 500 nM.

Regarding `O=C(Nc1ncsc1C(=O)NCc1ccccc1C(F)(F)F)c1cc(F)c(O)c(Cl)c1` [Example 9, 4-(3-chloro-5-fluoro-4-hydroxybenzamido)-N-{[2-(trifluoromethyl)phenyl]methyl}-1,3-thiazole-5-carboxamide], the IC50 was at most 100 nM. For `Cc1nsc(NC(=O)c2ccc(O)c(Cl)c2)c1C(=O)NCCC(C)(C)C` [Example 5, 5-(3-chloro-4-hydroxybenzamido)-N-(3,3-dimethylbutyl)-3-methylisothiazole-4-carboxamide], the IC50 is at most 100 nM. Regarding `O=C(Nc1ncsc1C(=O)NCc1ccccc1C(F)(F)F)c1cc(F)c(O)c(F)c1` [Example 4, 4-(3,5-difluoro-4-hydroxybenzamido)-N-(2-(trifluoromethyl)benzyl)thiazole-5-carboxamide], the IC50 is at most 100 nM. In turn, `O=C(Nc1scnc1C(=O)NCc1ccccc1OC(F)(F)F)c1ccc(=O)[nH]n1` [Example 15, 5-(6-oxo-1,6-dihydropyridazine-3-carboxamido)-N-(2-(trifluoromethoxy)benzyl)thiazole-4-carboxamide] had a 50% inhibitory concentration (IC50) of over 10000 nM. To `O=C(Nc1ncsc1C(=O)NCCc1ccccc1F)c1ccc(O)c(C(F)(F)F)n1` [Example 2, N-(2-fluorophenethyl)-4-(5-hydroxy-6-(trifluoromethyl)picolinamido)thiazole-5-carboxamide] belongs 100 to 500 nM. To `O=C(Nc1ncsc1C(=O)NCc1ccccc1OC(F)(F)F)c1cc(F)c(O)c(Cl)c1` [Example 11, 4-(3-chloro-5-fluoro-4-hydroxybenzamido)-N-(2-(trifluoromethoxy)benzyl)thiazole-5-carboxamide] belongs 100 to 500 nM; to `CC(C)(C)CCNC(=O)c1scnc1NC(=O)c1ccc(O)c(C(F)(F)F)n1` [Example 3, N-(3,3-dimethylbutyl)-4-(5-hydroxy-6-(trifluoromethyl)picolinamido)thiazole-5-carboxamide], 500 to 1000 nM.

Consider `O=C(Nc1ncsc1C(=O)NCc1ccccc1F)c1cc(F)c(O)c(Cl)c1` [Example 10, 4-(3-chloro-5-fluoro-4-hydroxybenzamido)-N-(2-fluorobenzyl)thiazole-5-carboxamide], for which the IC50 is 100 to 500 nM. In turn, `CC(C)c1cc(C(=O)Nc2scnc2C(=O)NCc2ccccc2OC(F)(F)F)n[nH]c1=O` [Example 14, 5-(5-isopropyl-6-oxo-1,6-dihydropyridazine-3-carboxamido)-N-(2-(trifluoromethoxy)benzyl)thiazole-4-carboxamide] showed an IC50 of over 10000 nM. Under `COc1ccccc1CCNC(=O)c1nc(C)sc1NC(=O)c1ccc(O)c(Cl)c1` [Example 12, 5-(3-chloro-4-hydroxybenzamido)-N-(2-methoxyphenethyl)-2-methylthiazole-4-carboxamide] stands at most 100 nM.

`O=C(Nc1ncsc1C(=O)NC(C(=O)O)c1ccccc1)c1ccc(O)c(Cl)c1` (stereo in doubt) [Example 8, (R)-2-(4-(3-chloro-4-hydroxybenzamido)thiazole-5-carboxamido)-2-phenylacetic Acid] displayed an IC50 of 1000 to 10000 nM.

In turn, `O=C(Nc1scnc1C(=O)NC(CO)c1ccccc1)c1ccc(O)c(Cl)c1` (stereo in doubt) [Example 6, (R)-5-(3-chloro-4-hydroxybenzamido)-N-(2-hydroxy-1-phenylethyl)thiazole-4-carboxamide] had an IC50 of at most 100 nM. `O=C(Nc1scnc1C(=O)NCc1ccccc1OC(F)(F)F)c1c[nH]c(=O)cn1` [Example 16, 5-(5-oxo-4,5-dihydropyrazine-2-carboxamido)-N-(2-(trifluoromethoxy)benzyl)thiazole-4-carboxamide] returned an IC50 of over 10000 nM.

The values are drawn from US20240208959A1, “THIAZOLE/ISOTHIAZOLE HSD17B13 INHIBITORS AND USES THEREOF” (INIPHARM, INC., priority 2021, published 2024).
